From ChEMBL document CHEMBL3526130, “An evaluation of using rat-derived single-dose neuropharmacokinetic parameters to project accurately large animal unbound brain drug concentrations” (Drug Metab Dispos, 2012)

Key:
Format in all cases: ADME, organism-based
[1] = Ratio of unbound drug level in brain to plasma in Sprague-Dawley rat at 10 mg/kg, sc by LC-MS/MS analysis; set-up: dose 10 mg/kg, route subcutaneous
[2] = AUC(0 to 7 hrs) in Sprague-Dawley rat plasma at 10 mg/kg, sc by LC-MS/MS analysis; set-up: time < 7 hr, dose 10 mg/kg, route subcutaneous
[3] = AUC(0 to 7 hrs) in Sprague-Dawley rat cerebrospinal fluid at 10 mg/kg, sc by LC-MS/MS analysis; set-up: time < 7 hr, dose 10 mg/kg, route subcutaneous
[4] = Ratio of unbound brain concentration to drug level in cerebrospinal fluid in Sprague-Dawley rat at 10 mg/kg, sc by LC-MS/MS analysis; set-up: dose 10 mg/kg, route subcutaneous; conditions: in vivo
[5] = AUC(0 to infinity) in Sprague-Dawley rat cerebrospinal fluid at 10 mg/kg, sc by LC-MS/MS analysis; set-up: time infinity, dose 10 mg/kg, route subcutaneous
[6] = AUC(0 to infinity) in Sprague-Dawley rat plasma at 10 mg/kg, sc by LC-MS/MS analysis; set-up: dose 10 mg/kg, route subcutaneous, time infinity
[7] = AUC(0 to 7 hrs) in Sprague-Dawley rat brain at 10 mg/kg, sc by LC-MS/MS analysis; set-up: time < 7 hr, dose 10 mg/kg, route subcutaneous
[8] = Ratio of drug level in brain to plasma in Sprague-Dawley rat at 10 mg/kg, sc by LC-MS/MS analysis; set-up: dose 10 mg/kg, route subcutaneous; conditions: read-out: BPR
[9] = AUC(0 to infinity) in Sprague-Dawley rat brain at 10 mg/kg, sc by LC-MS/MS analysis; set-up: time infinity, dose 10 mg/kg, route subcutaneous
[10] = AUC(0 to infinity) in Sprague-Dawley rat cerebrospinal fluid at 35 mg/kg, sc by LC-MS/MS analysis; set-up: dose 35 mg/kg, route subcutaneous, time infinity
[11] = tested on: Nucleic Acid; test: Ratio of drug level in cerebrospinal fluid to unbound plasma concentration in Sprague-Dawley rat at 35 mg/kg, sc by LC-MS/MS analysis; set-up: dose 35 mg/kg, route subcutaneous; conditions: in vivo
[12] = AUC(0 to 7 hrs) in Sprague-Dawley rat cerebrospinal fluid at 35 mg/kg, sc by LC-MS/MS analysis; set-up: time < 7 hr, dose 35 mg/kg, route subcutaneous
[13] = Ratio of unbound drug level in brain to plasma in Sprague-Dawley rat at 35 mg/kg, sc by LC-MS/MS analysis; set-up: dose 35 mg/kg, route subcutaneous
[14] = AUC(0 to 7 hrs) in Sprague-Dawley rat plasma at 35 mg/kg, sc by LC-MS/MS analysis; set-up: time < 7 hr, dose 35 mg/kg, route subcutaneous
[15] = tested on: Nucleic Acid; test: Ratio of drug level in brain to plasma in Sprague-Dawley rat at 35 mg/kg, sc by LC-MS/MS analysis; set-up: dose 35 mg/kg, route subcutaneous
[16] = AUC(0 to 7 hrs) in Sprague-Dawley rat brain at 35 mg/kg, sc by LC-MS/MS analysis; set-up: time < 7 hr, dose 35 mg/kg, route subcutaneous
[17] = AUC(0 to infinity) in Sprague-Dawley rat brain at 35 mg/kg, sc by LC-MS/MS analysis; set-up: dose 35 mg/kg, route subcutaneous, time infinity
[18] = Ratio of unbound brain concentration to drug level in cerebrospinal fluid in Sprague-Dawley rat at 35 mg/kg, sc by LC-MS/MS analysis; set-up: dose 35 mg/kg, route subcutaneous; conditions: in vivo
[19] = AUC(0 to infinity) in Sprague-Dawley rat plasma at 35 mg/kg, sc by LC-MS/MS analysis; set-up: time infinity, dose 35 mg/kg, route subcutaneous

Row | Kp uu [1] | AUC(0-t) at 7 h [2] [ng·h/mL] | AUC(0-t) at 7 h [3] [ng·h/mL] | Ratio [4] | AUC(0-inf) [5] [ng·h/mL] | AUC(0-inf) [6] [ng·h/mL] | AUC(0-t) at 7 h [7] [ng·h/mL] | Kp [8] | AUC(0-inf) [9] [ng·h/mL] | AUC(0-inf) [10] [ng·h/mL] | Ratio [11] | AUC(0-t) at 7 h [12] [ng·h/mL] | Kp uu [13] | AUC(0-t) at 7 h [14] [ng·h/mL] | BPR [15] | AUC(0-t) at 7 h [16] [ng·h/mL] | AUC(0-inf) [17] [ng·h/mL] | Ratio [18] | AUC(0-inf) [19] [ng·h/mL] | Compound
1 | 1.08 | 930 | 401 | 0.89 | 421 | 958 | 12500 | 13.4 | 12900 | – | – | – | – | – | – | – | – | – | – | CN(C)CCCC1(c2ccc(F)cc2)OCc2cc(C#N)ccc21 (racemic) [CITALOPRAM]
2 | – | – | – | – | – | – | – | – | – | 304 | 0.23 | 302 | 0.05 | 4920 | 0.38 | 1850 | 1880 | 0.22 | 5310 | C=C[C@H]1C[N@@]2CC[C@H]1C[C@@H]2[C@@H](O)c1ccnc2ccc(OC)cc12 [QUINIDINE]
